This assay concerns the target T1, Bovine liver catalase (CAT) (Bos taurus, UniProt P00432).
T1 sequence (P00432 2-527): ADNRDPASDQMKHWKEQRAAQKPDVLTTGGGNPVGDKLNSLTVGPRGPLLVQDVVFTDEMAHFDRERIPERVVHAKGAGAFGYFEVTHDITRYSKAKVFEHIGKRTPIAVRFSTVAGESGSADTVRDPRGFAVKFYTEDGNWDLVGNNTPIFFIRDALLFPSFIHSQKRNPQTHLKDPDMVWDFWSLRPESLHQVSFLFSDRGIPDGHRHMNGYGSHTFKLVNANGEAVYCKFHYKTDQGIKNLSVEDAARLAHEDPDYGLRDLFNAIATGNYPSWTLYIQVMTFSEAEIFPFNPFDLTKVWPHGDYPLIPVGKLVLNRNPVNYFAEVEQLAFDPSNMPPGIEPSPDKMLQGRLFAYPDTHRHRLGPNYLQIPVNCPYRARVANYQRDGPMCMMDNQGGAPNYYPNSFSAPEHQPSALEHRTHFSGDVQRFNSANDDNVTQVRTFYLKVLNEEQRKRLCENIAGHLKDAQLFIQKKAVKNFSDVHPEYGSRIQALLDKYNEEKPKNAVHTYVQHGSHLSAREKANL
In words: H2O2 disappearance at […] nm after […] min preincubation with D-Pen. It is filed as biochemical.

With `CC(C)(S)[C@@H](N)C(=O)O` [D-penicillamine], the midpoint of inhibition, the IC50, lay at 191 ± 26 µM.

The term IC50 denotes the concentration that gives 50% inhibition. The low end stands for higher potency, the high end for lower potency.

The record behind these values is paper doi:10.1101/2021.09.16.460603v1 (biorxiv, 2021).
